# Experimental data taken from US12661343B2, “Compositions containing nicotinamide and vitamin B6 and methods of using such compositions for promoting muscle growth” (SOCIETE DES PRODUITS NESTLE S.A., priority 2020, dated 2026).
# Test system: Human primary myoblasts
# Assay: Myogenic amplification and commitment of muscle stem cells (Pax7/MyoD staining, image quantification)
# Assay type: cell-based
# Conditions: donors 1 and 2 pooled, dose response, 96 hours, normalized to total cell number, control DMSO 1%; for proportion of MyoD+ cells (differentiating), fold change compared to the control condition: FIG. 1B/2B
# Procedure: Human Skeletal Muscle Myoblasts were purchased from Lonza (https://bioscience.lonza.com). These cells were isolated from the upper arm or leg muscle tissue of normal donors and used after the second passage. Several donors were tested to ensure cell viability and purity before selecting the final donors, which are a person (refer thereafter as Donor 1), a person (refer thereafter as Donor 2) and a person (refer thereafter as Donor 3). Human primary myoblasts were seeded in 384 well plates at a density of 1′000 cells per well in skeletal muscle growth medium (SKM-M, AMSbio). For treatment, compounds were directly added to the myoblast cultures 16 hours after initial plating. All cultures were then grown for 96 hours. Cells were stained for Pax7 and MyoD expression using antibodies directed against Pax7 and MyoD and counterstained with Hoechst 33342 to visualize cell nuclei. Pax7+ cells are defined as cells that express Pax7 regardless of MyoD expression. […] Image acquisition was performed using the ImageXpress (Molecular Devices) platform. Custom module analysis based on Multi-Wavelength Cell Scoring of the MetaXpress software was used for quantification. *, **, ***, **** indicates difference from the control, One-way ANOVA, with p<0.05, p<0.01, p<0.001, p<0.0001, respectively. Data are presented as Mean+/−SEM. Human primary myoblasts from different donors (donor 1, donor 2 or donor 3) were seeded in 384 well plates at a density of 1′000 cells per well in skeletal muscle growth medium (SKM-M, AMSbio). For treatment, compounds were directly added to the myoblast cultures 16 hours after initial plating. All cultures were then grown for 96 hours. Cells were stained for Pax7 and MyoD expression using antibodies directed against Pax7 and MyoD and counterstained with Hoechst 33342 to visualize cell nuclei. Pax7+ cells are defined as cells that express Pax7 regardless of MyoD expression. […] Image acquisition was performed using the ImageXpress (Molecular Devices) platform. Custom module analysis based on Multi-Wavelength Cell Scoring of the MetaXpress software was used for quantification. […]
smiles,measurement,setting,value
NC(=O)c1cccnc1 [Nicotinamide],"proportion of Pax7+ cells (amplifying), fold change compared to the control condition",FIG. 1A/2A,increasing the proportion of both amplifying (Pax7+) and differentiating (MyoD+) cells in a dose dependent manner
same,"proportion of MyoD+ cells (differentiating), fold change compared to the control condition",,increasing the proportion of both amplifying (Pax7+) and differentiating (MyoD+) cells in a dose dependent manner
Cc1ncc(CO)c(CO)c1O [Pyridoxine],"proportion of MyoD+ cells (differentiating), fold change compared to the control condition",,increasing the proportion of differentiating (MyoD+) cells in a dose dependent manner
